“And” between values parts separate entries of the source, which are not always exact repeats. Equal entries are not always repeated. Inconclusive results and toxic doses are left out. *1 amine or outer side, *2 acyl side, *3 side chain or, on linkers, in order; H or OH if unused. Where a SMILES comes first, the peptide text is derived from it. Bridges are numbered along the chain shown (N, C = ends). Roman numbers before positions name the chains, in order. [ ]: non-standard residue; d: D form. Actinocin(9to1) = Cc1c2oc3c(C)ccc(C(=O)[*:1])c3nc-2c(C(=O)[*:2])c(N)c1=O; aThr = C[C@H](O)[C@H](N)C(=O)O; NMeV = CN[C@H](C(=O)O)C(C)C; Sar = CNCC(=O)O
System: mice, LPC-1 plasma cell tumor ip, median survival T/C
Assay: NCI In Vivo Anticancer Drug Screen. Data for tumor model Lieberman Plasma Cell No. 1 (LPC-1) (intraperitoneal) in unknown mice
Conditions: endpoint: median survival time, higher = longer survival
Method: The antitumor activity of compounds was measured in mice bearing transplantable tumors. Survival or tumor size were measured and the results are expressed as the measurement made in the treated group (T) divided by the measurement made in the vehicle treated control group (C). The tumor model used in this assay is Lieberman Plasma Cell No. 1 (LPC-1) (intraperitoneal) in unknown mice

[1] = dose: 3.0 mg/kg/injection, schedule: Q01DX028 (sc), vehicle: saline
[2] = dose: 5.0 mg/kg/injection, schedule: Q01DX028 (sc), vehicle: saline

How did the T/C (dose: 26.0 mg/kg/injection, schedule: Q01DX028 (sc), vehicle: saline) turn out when CNNCc1ccc(C(=O)NC(C)C)cc1 was run?
The T/C was 96 % of control.

What about the T/C (dose: 65.0 mg/kg/injection, schedule: Q01DX028 (sc), vehicle: saline) of the same compound?
The T/C was 166 % of control.

And the T/C (dose: 90.0 mg/kg/injection, schedule: Q01DX028 (sc), vehicle: saline)?
The T/C was 115 % of control.

What about the T/C (dose: 108.0 mg/kg/injection, schedule: Q01DX028 (sc), vehicle: saline) of the same compound?
The T/C was 180 % of control.

And the T/C (dose: 135.0 mg/kg/injection, schedule: Q01DX028 (sc), vehicle: saline)?
The T/C was 100 % of control.

What about the T/C (dose: 300.0 mg/kg/injection, schedule: Q01DX028 (sc), vehicle: saline) of the same compound?
Its T/C is 114 % of control.

And the T/C (dose: 500.0 mg/kg/injection, schedule: Q01DX028 (sc), vehicle: saline)?
The T/C was 95 % of control.

With CN(C)c1nc(N(C)C)nc(N(C)C)n1 as the compound, how does the T/C (dose: 50.0 mg/kg/injection, schedule: Q01DX009 (ip), vehicle: olive oil, sesame oil, peanut oil) read?
The T/C was 92 % of control.

What about the T/C (dose: 100.0 mg/kg/injection, schedule: Q01DX009 (ip), vehicle: other) of the same compound?
The T/C was 122 % of control.

What about the T/C (dose: 200.0 mg/kg/injection, schedule: Q01DX009 (ip), vehicle: other) of the same compound?
The T/C was 110 % of control.

And the T/C (dose: 400.0 mg/kg/injection, schedule: Q01DX009 (ip), vehicle: other)?
The T/C was 106 % of control.

C/C(=N/N=C(N)N)c1ccc(NC(=O)Nc2ccc(/C(C)=N/N=C(N)N)cc2)cc1 was tested. Which T/C (dose: 53.0 mg/kg/injection, schedule: Q01DX028 (sc), vehicle: carboxymethylcellulose (CMC)) did it give?
The T/C was 97 % of control.

What about the T/C (dose: 88.0 mg/kg/injection, schedule: Q01DX028 (sc), vehicle: carboxymethylcellulose (CMC)) of the same compound?
Its T/C is 92 % of control.

What about the T/C (dose: 147.0 mg/kg/injection, schedule: Q01DX028 (sc), vehicle: carboxymethylcellulose (CMC)) of the same compound?
Its T/C is 94 % of control.

What about the T/C (dose: 245.0 mg/kg/injection, schedule: Q01DX028 (sc), vehicle: carboxymethylcellulose (CMC)) of the same compound?
Its T/C is 97 % of control.

Which T/C (dose: 125.0 mg/kg/injection, schedule: Q01DX028 (sc), vehicle: carboxymethylcellulose (CMC)) does the source give for OC(CBr)C(O)C(O)C(O)CBr (centres undefined) here?
Its T/C is 94 % of control and 102 % of control and 100 % of control.

And the T/C (dose: 500.0 mg/kg/injection, schedule: Q01DX028 (sc), vehicle: carboxymethylcellulose (CMC))?
Its T/C is 89 % of control and 115 % of control.

For Cc1c2oc3c(C)ccc(C(=O)N[C@@H]4C(=O)N[C@H](C(C)C)C(=O)N5CCC[C@H]5C(=O)N(C)CC(=O)N(C)[C@@H](C(C)C)C(=O)O[C@H]4C)c3nc-2c(C(=O)N[C@@H]2C(=O)N[C@H](C(C)C)C(=O)N3CCC[C@H]3C(=O)N(C)CC(=O)N(C)[C@@H](C(C)C)C(=O)O[C@H]2C)c(N)c1=O (I: [aThr][dV]P[Sar][NMeV] / II: [aThr][dV]P[Sar][NMeV]; ester I:1-I:C, II:1-II:C; linker I:N-II:N via Actinocin(9to1)), which T/C (dose: 0.03 mg/kg/injection, schedule: Q01DX028 (sc), vehicle: saline) is on record?
The T/C was 95 % of control.

What about the T/C (dose: 0.06 mg/kg/injection, schedule: Q01DX028 (sc), vehicle: saline) of the same compound?
Its T/C is 100 % of control.

And the T/C (dose: 0.13 mg/kg/injection, schedule: Q01DX028 (sc), vehicle: saline)?
The T/C was 95 % of control.

And the T/C (dose: 0.25 mg/kg/injection, schedule: Q01DX028 (sc), vehicle: saline)?
Its T/C is 90 % of control.

What does the source list for O=NN(CCCl)C(=O)NCCCl?
T/C (dose: 0.65 mg/kg/injection, schedule: Q01DX028 (sc), vehicle: saline): 109 % of control; T/C (dose: 1.08 mg/kg/injection, schedule: Q01DX028 (sc), vehicle: saline): 107 % of control; T/C (dose: 2.4 mg/kg/injection, schedule: Q01DX028 (sc), vehicle: saline): 157 % of control; T/C [1]: 157 % of control and 185 % of control; T/C [2]: 195 % of control and 202 % of control

CCOC(N)=O was tested. Which T/C (dose: 128.0 mg/kg/injection, schedule: Q01DX028 (sc), vehicle: other) did it give?
Its T/C is 98 % of control.

And the T/C (dose: 400.0 mg/kg/injection, schedule: Q01DX028 (sc), vehicle: saline)?
Its T/C is 210 % of control.

What about the T/C (dose: 512.0 mg/kg/injection, schedule: Q01DX028 (sc), vehicle: other) of the same compound?
Its T/C is 175 % of control.

With COc1cc2cccnc2c2[nH]ccc(=O)c12 as the compound, how does the T/C (dose: 50.0 mg/kg/injection, schedule: Q01DX009 (sc), vehicle: saline) read?
The T/C was 100 % of control.

And the T/C (dose: 100.0 mg/kg/injection, schedule: Q01DX009 (sc), vehicle: saline)?
Its T/C is 92 % of control.

And the T/C (dose: 200.0 mg/kg/injection, schedule: Q01DX009 (sc), vehicle: saline)?
The T/C was 102 % of control.

And the T/C (dose: 400.0 mg/kg/injection, schedule: Q01DX009 (sc), vehicle: saline)?
The T/C was 104 % of control.

Which results are given for COc1ccc2c(c1)C(C)=CC(C)(C)N2?
T/C (dose: 200.0 mg/kg/injection, schedule: Q01DX028 (sc), vehicle: steriod suspending solution): 110 % of control; T/C (dose: 400.0 mg/kg/injection, schedule: Q01DX028 (sc), vehicle: steriod suspending solution): 154 % of control

For CS(=O)(=O)OCCN(CCOS(C)(=O)=O)c1ccc(C=O)cc1, which T/C [1] is on record?
The T/C was 160 % of control.

What about the T/C [2] of the same compound?
The T/C was 166 % of control and 192 % of control.

And the T/C (dose: 8.3 mg/kg/injection, schedule: Q01DX028 (sc), vehicle: saline)?
Its T/C is 226 % of control.

And the T/C (dose: 10.0 mg/kg/injection, schedule: Q01DX028 (sc), vehicle: saline)?
Its T/C is 202 % of control.

And the T/C (dose: 14.0 mg/kg/injection, schedule: Q01DX028 (sc), vehicle: saline)?
Its T/C is 250 % of control.

What about the T/C (dose: 20.0 mg/kg/injection, schedule: Q01DX028 (sc), vehicle: saline) of the same compound?
Its T/C is 261 % of control.

And the T/C (dose: 40.0 mg/kg/injection, schedule: Q01DX028 (sc), vehicle: saline)?
Its T/C is 122 % of control.

What does the source list for O=C(O)CCCc1ccc(N(CCCl)CCCl)cc1?
T/C (dose: 1.0 mg/kg/injection, schedule: Q01DX007 (sc), vehicle: saline): 93 % of control; T/C (dose: 2.0 mg/kg/injection, schedule: Q01DX007 (sc), vehicle: saline): 109 % of control; T/C (dose: 3.0 mg/kg/injection, schedule: Q01DX028 (sc), vehicle: methylcellulose (MC)): 95 % of control; T/C (dose: 4.0 mg/kg/injection, schedule: Q01DX007 (sc), vehicle: saline): 118 % of control; T/C (dose: 5.0 mg/kg/injection, schedule: Q01DX028 (sc), vehicle: methylcellulose (MC)): 97 % of control; T/C (dose: 8.4 mg/kg/injection, schedule: Q01DX028 (sc), vehicle: methylcellulose (MC)): 100 % of control; T/C (dose: 14.0 mg/kg/injection, schedule: Q01DX028 (sc), vehicle: methylcellulose (MC)): 113 % of control; T/C (dose: 16.0 mg/kg/injection, schedule: Q01DX007 (sc), vehicle: saline): 112 % of control

Which T/C (dose: 10.0 mg/kg/injection, schedule: Q01DX028 (sc), vehicle: water) does the source give for CS(=O)(=O)OCCCCCOS(C)(=O)=O here?
The T/C was 107 % of control.

And the T/C (dose: 40.0 mg/kg/injection, schedule: Q01DX028 (sc), vehicle: water)?
Its T/C is 107 % of control.

And the T/C (dose: 44.0 mg/kg/injection, schedule: Q01DX028 (sc), vehicle: carboxymethylcellulose (CMC))?
Its T/C is 120 % of control.

For NC(CSCc1ccc(N(CCCl)CCCl)cc1)C(=O)O (centres undefined), which T/C (dose: 3.75 mg/kg/injection, schedule: Q01DX028 (sc), vehicle: saline) is on record?
Its T/C is 100 % of control.

What about the T/C (dose: 7.5 mg/kg/injection, schedule: Q01DX028 (sc), vehicle: saline) of the same compound?
Its T/C is 111 % of control.

What about the T/C (dose: 15.0 mg/kg/injection, schedule: Q01DX028 (sc), vehicle: saline) of the same compound?
Its T/C is 102 % of control.

What about the T/C (dose: 30.0 mg/kg/injection, schedule: Q01DX028 (sc), vehicle: saline) of the same compound?
The T/C was 122 % of control.

How did the T/C (dose: 25.0 mg/kg/injection, schedule: Q01DX028 (sc), vehicle: steriod suspending solution) turn out when CC(=O)O[C@]1(C(C)=O)CC[C@H]2[C@@H]3C[C@H](C)C4=CC(=O)C=C[C@]4(C)[C@@]3(F)[C@@H](O)C[C@@]21C was run?
Its T/C is 100 % of control.

What about the T/C (dose: 50.0 mg/kg/injection, schedule: Q01DX028 (sc), vehicle: steriod suspending solution) of the same compound?
Its T/C is 97 % of control.

And the T/C (dose: 75.0 mg/kg/injection, schedule: Q01DX028 (sc), vehicle: steriod suspending solution)?
Its T/C is 91 % of control.

What about the T/C (dose: 100.0 mg/kg/injection, schedule: Q01DX028 (sc), vehicle: steriod suspending solution) of the same compound?
The T/C was 97 % of control.

N=C(N)SCc1c2ccccc2c(CSC(=N)N)c2ccccc12 was tested. Which T/C (dose: 2.5 mg/kg/injection, schedule: Q01DX028 (sc), vehicle: carboxymethylcellulose (CMC)) did it give?
The T/C was 97 % of control.

What about the T/C (dose: 5.0 mg/kg/injection, schedule: Q01DX028 (sc), vehicle: carboxymethylcellulose (CMC)) of the same compound?
The T/C was 112 % of control.

And the T/C (dose: 10.0 mg/kg/injection, schedule: Q01DX028 (sc), vehicle: carboxymethylcellulose (CMC))?
The T/C was 95 % of control.

What about the T/C (dose: 20.0 mg/kg/injection, schedule: Q01DX028 (sc), vehicle: carboxymethylcellulose (CMC)) of the same compound?
Its T/C is 117 % of control.

What about the T/C (dose: 40.0 mg/kg/injection, schedule: Q01DX028 (sc), vehicle: carboxymethylcellulose (CMC)) of the same compound?
The T/C was 115 % of control.

Which results are given for O=c1ccc2cc(OC3OC(CO)C(O)C(O)C3O)c(O)cc2o1 (centres undefined)?
T/C (dose: 400.0 mg/kg/injection, schedule: Q01DX028 (sc), vehicle: carboxymethylcellulose (CMC)): 100 % of control; T/C (dose: 600.0 mg/kg/injection, schedule: Q01DX028 (sc), vehicle: carboxymethylcellulose (CMC)): 100 % of control; T/C (dose: 900.0 mg/kg/injection, schedule: Q01DX028 (sc), vehicle: carboxymethylcellulose (CMC)): 97 % of control

— PubChem BioAssay AID344 (DTP/NCI, 2004)
